Source: US9809625B2, “Immunomodulators” (BRISTOL-MYERS SQUIBB COMPANY, priority 2015, dated 2017)
Bridge positions count the residues as written; N and C are the ends. Square brackets hold non-standard residues; d marks the D form. Peptide text beside a SMILES is read from it. * marks the point of attachment. ξ: configuration not given here. Hyp = O=C(O)[C@@H]1C[C@@H](O)CN1; ξW = NC(Cc1c[nH]c2ccccc12)C(=O)O; NMeNle = CCCC[C@H](NC)C(=O)O; X3 = CN(CCN*)C(=O)OC(C)(C)C; X7 = CC(C)(C)OC(=O)NCCCCCN*; NMeA = CN[C@@H](C)C(=O)O; Dap = NC[C@H](N)C(=O)O; X1 = CN(C)C1CCN(*)CC1; X10 = c1ccc(OCCN*)cc1; X8 = c1ccc(SCCN*)cc1; NHCH2cPr = C1CC1CN*; X11 = OC1CCC(N*)CC1; X12 = OCC1CCN(*)CC1; X9 = OCCN(CCO)CCCN*; X6 = O=C1CN(*)CCN1; OtBu = CC(C)(C)O*; βAla = NCCC(=O)O

Target: T1, PD-1-Ig binding to PD-L1-TVMV-His (PD-L1-His) (Homo sapiens, UniProt Q9NZQ7)
T1 construct: hPDL1(19-239)-TVMV-His; TVMV protease cleavage site (C); made in house; host or cells: HEK293T
T1 sequence (Q9NZQ7 with tags, fused parts or gaps): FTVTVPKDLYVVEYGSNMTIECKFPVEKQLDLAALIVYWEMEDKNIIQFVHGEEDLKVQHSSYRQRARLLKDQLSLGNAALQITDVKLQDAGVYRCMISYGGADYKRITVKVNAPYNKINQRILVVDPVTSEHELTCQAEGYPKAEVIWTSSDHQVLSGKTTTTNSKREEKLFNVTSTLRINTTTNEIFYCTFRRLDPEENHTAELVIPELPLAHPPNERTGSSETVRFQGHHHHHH
Assay: PD-1/PD-L1 Homogenous Time-Resolved Fluorescence (HTRF) binding assay
Details: PD-1-Ig (20 nM)/PD-L1-His (10 nM), range classes
From the text: Methods for Testing the Ability of Macrocyclic Peptides to Compete for the Binding of PD-1 to PD-L1 Using Homogenous Time-Resolved Fluorescence (HTRF) Binding Assays
The ability of the macrocyclic peptides of the present disclosure to bind to PD-L1 was investigated using a PD-1/PD-L1 Homogenous Time-Resolved Fluorescence (HTRF) binding assay.
Homogenous Time-Resolved Fluorescence (HTRF) Assays of Binding of Soluble PD-1 to Soluble PD-L1. Soluble PD-1 and soluble PD-L1 refers to proteins with carboxyl-end truncations that remove the transmembrane-spanning regions and are fused to heterologous sequences, specifically the Fc portion of the human immunoglobuling G sequence (Ig) or the hexahistidine epitope tag (His). All binding studies were performed in an HTRF assay buffer consisting of dPBS supplemented with 0.1% (w/v) bovine serum albumin and 0.05% (v/v) Tween-20. For the PD-1-Ig/PD-L1-His binding assay, inhibitors were pre-incubated with PD-L1-His (10 nM final) for 15 m in 4 μl of assay buffer, followed by addition of PD-1-Ig (20 nM final) in 1 μl of assay buffer and further incubation for 15 m. PD-L1 fusion proteins from either human, cynomologous macaques, mouse, or other species were used. HTRF detection was achieved using europium crypate-labeled anti-Ig monoclonal antibody (1 nM final) and allophycocyanin (APC) labeled anti-His monoclonal antibody (20 nM final). Antibodies were diluted in HTRF detection buffer and 5 μl was dispensed on top of binding reaction. The reaction was allowed to equilibrate for 30 minutes and signal (665 nm/620 nm ratio) was obtained using an EnVision fluorometer. Additional binding assays were established between PD-1-Ig/PD-L2-His (20 and 5 nM, respectively), CD80-His/PD-L1-Ig (100 and 10 nM, respectively) and CD80-His/CTLA4-Ig (10 and 5 nM, respectively). Binding/competition studies between biotinylated Compound No. 71 and human PD-L1-His were performed as follows. Macrocyclic peptide inhibitors were pre-incubated with PD-L1-His (10 nM final) for 60 minutes in 4 μl of assay buffer followed by addition of biotinylated Compound No. 71 (0.5 nM final) in 1 μl of assay buffer. Binding was allowed to equilibrate for 30 minutes followed by addition of europium crypated labeled Streptavidin (2.5 pM final) and APC-labeled anti-His (20 nM final) in 5 μl of HTRF buffer. The reaction was allowed to equilibrate for 30 m and signal (665 nm/620 nm ratio) was obtained using an EnVision fluorometer.
Recombinant Proteins. Carboxyl-truncated human PD-1 (amino acids 25-167) with a C-terminal human Ig epitope tag [hPD-1 (25-167)-3S-IG] and human PD-L1 (amino acids 18-239) with a C-terminal His epitope tag [hPD-L1(19-239)-tobacco vein mottling virus protease cleavage site (TVMV)-His] were expressed in HEK293T cells and purified sequentially by recombinant Protein A affinity chromatography and size exclusion chromatography. Human PD-L2-His (Sino Biologicals), CD80-His (Sino Biologicals), CTLA4-Ig (RnD Systems) were all obtained through commercial sources.

Structure (SMILES)	IC50
CCCC[C@H]1C(=O)N(C)[C@@H](CCCC)C(=O)N[C@@H](CC(C)C)C(=O)N[C@H](C(=O)NCC(=O)NC2CCC(O)CC2)CSCC(=O)N[C@@H](Cc2ccc(O)cc2)C(=O)N(C)[C@@H](C)C(=O)N[C@@H](CC(N)=O)C(=O)N2CCC[C@H]2C(=O)N[C@@H](CN)C(=O)N[C@@H](CC(C)C)C(=O)N2C[C@H](O)C[C@H]2C(=O)N[C@@H](Cc2c[nH]c3ccccc23)C(=O)NCC(=O)NC(Cc2c[nH]c3ccccc23)C(=O)N1C (stereo partly drawn) [Example 13106] ({CH2CO}-Y[NMeA]NP[Dap]L[Hyp]WG[ξW][NMeNle][NMeNle]LCG-X11; thioether N-14)	10 to 60 nM
CCCC[C@H]1C(=O)N(C)[C@@H](CCCC)C(=O)N[C@@H](CC(C)C)C(=O)N[C@H](C(=O)NCC(=O)NCCCN(CCO)CCO)CSCC(=O)N[C@@H](Cc2ccc(O)cc2)C(=O)N(C)[C@@H](C)C(=O)N[C@@H](CC(N)=O)C(=O)N2CCC[C@H]2C(=O)N[C@@H](CN)C(=O)N[C@@H](CC(C)C)C(=O)N2C[C@H](O)C[C@H]2C(=O)N[C@@H](Cc2c[nH]c3ccccc23)C(=O)NCC(=O)N[C@@H](Cc2c[nH]c3ccccc23)C(=O)N1C [Example 13107] ({CH2CO}-Y[NMeA]NP[Dap]L[Hyp]WGW[NMeNle][NMeNle]LCG-X9; thioether N-14)	10 to 60 nM
CCCC[C@H]1C(=O)N(C)[C@@H](CCCC)C(=O)N[C@@H](CC(C)C)C(=O)N[C@H](C(=O)NCC(=O)NCCOc2ccccc2)CSCC(=O)N[C@@H](Cc2ccc(O)cc2)C(=O)N(C)[C@@H](C)C(=O)N[C@@H](CC(N)=O)C(=O)N2CCC[C@H]2C(=O)N[C@@H](CN)C(=O)N[C@@H](CC(C)C)C(=O)N2C[C@H](O)C[C@H]2C(=O)N[C@@H](Cc2c[nH]c3ccccc23)C(=O)NCC(=O)N[C@@H](Cc2c[nH]c3ccccc23)C(=O)N1C [Example 13108] ({CH2CO}-Y[NMeA]NP[Dap]L[Hyp]WGW[NMeNle][NMeNle]LCG-X10; thioether N-14)	10 to 60 nM
CCCC[C@H]1C(=O)N(C)[C@@H](CCCC)C(=O)N[C@@H](CC(C)C)C(=O)N[C@H](C(=O)NCC(=O)NCCC(=O)OC(C)(C)C)CSCC(=O)N[C@@H](Cc2ccc(O)cc2)C(=O)N(C)[C@@H](C)C(=O)N[C@@H](CC(N)=O)C(=O)N2CCC[C@H]2C(=O)N[C@@H](CN)C(=O)N[C@@H](CC(C)C)C(=O)N2C[C@H](O)C[C@H]2C(=O)N[C@@H](Cc2c[nH]c3ccccc23)C(=O)NCC(=O)NC(Cc2c[nH]c3ccccc23)C(=O)N1C (stereo partly drawn) [Example 13109] ({CH2CO}-Y[NMeA]NP[Dap]L[Hyp]WG[ξW][NMeNle][NMeNle]LCG[βAla]-OtBu; thioether N-14)	10 to 60 nM
CCCC[C@H]1C(=O)N(C)[C@@H](CCCC)C(=O)N[C@@H](CC(C)C)C(=O)N[C@H](C(=O)NCC(=O)N2CCC(CO)CC2)CSCC(=O)N[C@@H](Cc2ccc(O)cc2)C(=O)N(C)[C@@H](C)C(=O)N[C@@H](CC(N)=O)C(=O)N2CCC[C@H]2C(=O)N[C@@H](CN)C(=O)N[C@@H](CC(C)C)C(=O)N2C[C@H](O)C[C@H]2C(=O)N[C@@H](Cc2c[nH]c3ccccc23)C(=O)NCC(=O)NC(Cc2c[nH]c3ccccc23)C(=O)N1C (stereo partly drawn) [Example 13111] ({CH2CO}-Y[NMeA]NP[Dap]L[Hyp]WG[ξW][NMeNle][NMeNle]LCG-X12; thioether N-14)	10 to 60 nM
CCCC[C@H]1C(=O)N(C)[C@@H](CCCC)C(=O)N[C@@H](CC(C)C)C(=O)N[C@H](C(=O)NCC(=O)NCCCCCNC(=O)OC(C)(C)C)CSCC(=O)N[C@@H](Cc2ccc(O)cc2)C(=O)N(C)[C@@H](C)C(=O)N[C@@H](CC(N)=O)C(=O)N2CCC[C@H]2C(=O)N[C@@H](CN)C(=O)N[C@@H](CC(C)C)C(=O)N2C[C@H](O)C[C@H]2C(=O)N[C@@H](Cc2c[nH]c3ccccc23)C(=O)NCC(=O)NC(Cc2c[nH]c3ccccc23)C(=O)N1C (stereo partly drawn) [Example 13112] ({CH2CO}-Y[NMeA]NP[Dap]L[Hyp]WG[ξW][NMeNle][NMeNle]LCG-X7; thioether N-14)	10 to 60 nM
CCCC[C@H]1C(=O)N(C)[C@@H](CCCC)C(=O)N[C@@H](CC(C)C)C(=O)N[C@H](C(=O)NCC(=O)NCCN(C)C(=O)OC(C)(C)C)CSCC(=O)N[C@@H](Cc2ccc(O)cc2)C(=O)N(C)[C@@H](C)C(=O)N[C@@H](CC(N)=O)C(=O)N2CCC[C@H]2C(=O)N[C@@H](CN)C(=O)N[C@@H](CC(C)C)C(=O)N2C[C@H](O)C[C@H]2C(=O)N[C@@H](Cc2c[nH]c3ccccc23)C(=O)NCC(=O)NC(Cc2c[nH]c3ccccc23)C(=O)N1C (stereo partly drawn) [Example 13113] ({CH2CO}-Y[NMeA]NP[Dap]L[Hyp]WG[ξW][NMeNle][NMeNle]LCG-X3; thioether N-14)	10 to 60 nM

The next lines start with the values.

IC50	Structure (SMILES)
10 to 60 nM	CCCC[C@H]1C(=O)N(C)[C@@H](CCCC)C(=O)N[C@@H](CC(C)C)C(=O)N[C@H](C(=O)NCC(=O)NCCSc2ccccc2)CSCC(=O)N[C@@H](Cc2ccc(O)cc2)C(=O)N(C)[C@@H](C)C(=O)N[C@@H](CC(N)=O)C(=O)N2CCC[C@H]2C(=O)N[C@@H](CN)C(=O)N[C@@H](CC(C)C)C(=O)N2C[C@H](O)C[C@H]2C(=O)N[C@@H](Cc2c[nH]c3ccccc23)C(=O)NCC(=O)NC(Cc2c[nH]c3ccccc23)C(=O)N1C (stereo partly drawn) [Example 13101] ({CH2CO}-Y[NMeA]NP[Dap]L[Hyp]WG[ξW][NMeNle][NMeNle]LCG-X8; thioether N-14)
10 to 60 nM	CCCC[C@H]1C(=O)N(C)[C@@H](CCCC)C(=O)N[C@@H](CC(C)C)C(=O)N[C@H](C(=O)NCC(=O)N2CCC(N(C)C)CC2)CSCC(=O)N[C@@H](Cc2ccc(O)cc2)C(=O)N(C)[C@@H](C)C(=O)N[C@@H](CC(N)=O)C(=O)N2CCC[C@H]2C(=O)N[C@@H](CN)C(=O)N[C@@H](CC(C)C)C(=O)N2C[C@H](O)C[C@H]2C(=O)N[C@@H](Cc2c[nH]c3ccccc23)C(=O)NCC(=O)NC(Cc2c[nH]c3ccccc23)C(=O)N1C (stereo partly drawn) [Example 13103] ({CH2CO}-Y[NMeA]NP[Dap]L[Hyp]WG[ξW][NMeNle][NMeNle]LCG-X1; thioether N-14)
10 to 60 nM	CCCC[C@H]1C(=O)N(C)[C@@H](CCCC)C(=O)N[C@@H](CC(C)C)C(=O)N[C@H](C(=O)NCC(=O)NCC2CC2)CSCC(=O)N[C@@H](Cc2ccc(O)cc2)C(=O)N(C)[C@@H](C)C(=O)N[C@@H](CC(N)=O)C(=O)N2CCC[C@H]2C(=O)N[C@@H](CN)C(=O)N[C@@H](CC(C)C)C(=O)N2C[C@H](O)C[C@H]2C(=O)N[C@@H](Cc2c[nH]c3ccccc23)C(=O)NCC(=O)NC(Cc2c[nH]c3ccccc23)C(=O)N1C (stereo partly drawn) [Example 13104] ({CH2CO}-Y[NMeA]NP[Dap]L[Hyp]WG[ξW][NMeNle][NMeNle]LCG-NHCH2cPr; thioether N-14)
4 to 9.9 nM	CCCC[C@H]1C(=O)N(C)[C@@H](CCCC)C(=O)N[C@@H](CC(C)C)C(=O)N[C@H](C(=O)NCC(=O)NCCC(N)=O)CSCC(=O)N[C@@H](Cc2ccc(O)cc2)C(=O)N(C)[C@@H](C)C(=O)N[C@@H](CC(N)=O)C(=O)N2CCC[C@H]2C(=O)N[C@@H](CN)C(=O)N[C@@H](CC(C)C)C(=O)N2C[C@H](O)C[C@H]2C(=O)N[C@@H](Cc2c[nH]c3ccccc23)C(=O)NCC(=O)NC(Cc2c[nH]c3ccccc23)C(=O)N1C (stereo partly drawn) [Example 13110] ({CH2CO}-Y[NMeA]NP[Dap]L[Hyp]WG[ξW][NMeNle][NMeNle]LCG[βAla]-NH2; thioether N-14)
4 to 9.9 nM	CCCC[C@H]1C(=O)N(C)[C@@H](CCCC)C(=O)N[C@@H](CC(C)C)C(=O)N[C@H](C(=O)NCC(=O)N2CCNC(=O)C2)CSCC(=O)N[C@@H](Cc2ccc(O)cc2)C(=O)N(C)[C@@H](C)C(=O)N[C@@H](CC(N)=O)C(=O)N2CCC[C@H]2C(=O)N[C@@H](CN)C(=O)N[C@@H](CC(C)C)C(=O)N2C[C@H](O)C[C@H]2C(=O)N[C@@H](Cc2c[nH]c3ccccc23)C(=O)NCC(=O)NC(Cc2c[nH]c3ccccc23)C(=O)N1C (stereo partly drawn) [Example 13114] ({CH2CO}-Y[NMeA]NP[Dap]L[Hyp]WG[ξW][NMeNle][NMeNle]LCG-X6; thioether N-14)
